CS(=O)(=O)c1ccc(C(=O)C2C(=O)CCCC2=O)c([N+](=O)[O-])c1
solubility (mole fraction)
Conditions	283.15 K	288.15 K	293.15 K	298.15 K	303.15 K	308.15 K	313.15 K	318.15 K	323.15 K
in 2-pentanol	0.000571	0.00081	0.00114	0.00158	0.00216	0.00294	0.00396	0.00561	0.00671
in MTBE	0.000245	0.000282	0.000322	0.000367	0.000397	0.000473	0.000536	0.000606	0.000684
in cyclohexane	0.000321	0.000402	0.000486	0.000616	0.000733	0.000888	0.00104	0.00122	0.00168
in ethanol	0.0023	0.00264	0.00316	0.00386	0.00455	0.00535	0.00627	0.00734	0.00857
in ethyl acetate	0.000565	0.000707	0.000879	0.00109	0.00132	0.00163	0.00198	0.00239	0.00287
in methanol	0.00351	0.00401	0.00457	0.00518	0.00567	0.00663	0.00748	0.00842	0.00946
in methyl acetate	0.00134	0.00152	0.00173	0.00194	0.00225	0.00255	0.00293	0.0033	0.00381
in n-butanol	0.000708	0.000999	0.00139	0.00193	0.00273	0.00355	0.00476	0.00601	0.00731
in n-butyl acetate	0.000418	0.000529	0.000664	0.000829	0.00103	0.00127	0.00155	0.0019	0.00231
in n-pentanol	0.000635	0.000889	0.00123	0.00168	0.00228	0.00306	0.00407	0.00536	0.007
in n-propanol	0.0013	0.00168	0.00216	0.00274	0.00376	0.00434	0.0054	0.00669	0.00793
in sec-butanol	0.000341	0.000507	0.000745	0.00108	0.00145	0.00199	0.00307	0.00425	0.00584

Source: BigSolDB 2.1
